What was measured:
Breast carcinoma cell = test: Cytotoxicity against human breast cancer cell line assessed as reduction in cell viability by MTT assay relative to control; assay type: functional
[1] = molecular target: Serine/threonine-protein kinase B-raf (Homo sapiens, UniProt P15056, V600E); test: Inhibition of human BRAF V600E mutant using MEK1 as substrate in presence of ATP
[2] = tested on: Non-small cell lung cancer cell line; test: Cytotoxicity against human non-small cell lung cancer cell line assessed as reduction in cell viability by MTT assay relative to control; assay type: functional
[3] = Cytotoxicity against human Colon carcinoma cells assessed as reduction in cell viability by MTT assay relative to control; assay type: functional
[4] = Cytotoxicity against human L132 cells by MTT assay; assay type: toxicity, cell-based
A-375 [5] = test: Cytotoxicity against human A-375 cells by MTT assay; assay type: functional, cell-based
Leukemic tumor cell line = test: Cytotoxicity against human leukemic tumor cell line assessed as reduction in cell viability by MTT assay relative to control; assay type: functional
Ovarian cancer cell line = test: Cytotoxicity against human ovarian cancer cell line assessed as reduction in cell viability by MTT assay relative to control; assay type: functional
Renal cancer cell line = test: Cytotoxicity against human renal cancer cell line assessed as reduction in cell viability by MTT assay relative to control; assay type: functional
Melanoma tumor cell line = test: Cytotoxicity against human melanoma tumor cell line assessed as reduction in cell viability by MTT assay relative to control; assay type: functional
Prostatic carcinoma cell = test: Cytotoxicity against human prostatic carcinoma cell assessed as reduction in cell viability by MTT assay relative to control; assay type: functional
CNS carcinoma cell = test: Cytotoxicity against human CNS carcinoma cells assessed as reduction in cell viability by MTT assay relative to control; assay type: functional
A-375 [6] = test: Antiproliferative activity against human A375 cells measured after 48 hrs by MTT assay; assay type: functional, cell-based; conditions: A-375, 48 h
UACC-62 [7] = test: Antiproliferative activity against human UACC-62 cells measured after 48 hrs by MTT assay; assay type: functional, cell-based; conditions: UACC-62, 48 h
MDA-MB-435 = test: Antiproliferative activity against human MDA-MB-435 cells measured after 48 hrs by MTT assay; assay type: functional, cell-based; conditions: MDA-MB-435, 48 h
SK-MEL-28 = test: Antiproliferative activity against human SK-MEL-28 cells measured after 48 hrs by MTT assay; assay type: functional, cell-based; conditions: SK-MEL-28, 48 h
[8] = Inhibition of BRAF V600E mutant in MEF cells incubated for 90 mins; assay type: cell-based, Mus musculus
UACC-62 [9] = test: Induction of apoptosis in human UACC-62 cells assessed as increase in caspase-3/7 release at 0.18 uM relative to control; assay type: functional
[10] = Inhibition of tubulin polymerisation in human A549; assay type: cell-based
A549 [11] = test: Inhibition of tubulin polymerisation in human A549 cells relative to control; assay type: cell-based; conditions: dose or concentration not given here
MDA-MB-231 [12] = test: Antiproliferative activity human MDA-MB-231 cells; assay type: functional, cell-based
A549 [13] = test: Antiproliferative activity against human A549 cells incubated for 48 hrs by MTT assay; assay type: functional, cell-based; conditions: A549, 48 h
A549 [14] = test: Antiproliferative activity human A549 cells; assay type: functional, cell-based
A549 [15] = test: Induction of apoptosis in human A549 cells assessed as increase in caspase-3 level at 1 uM measured after 48 hrs by ELISA method relative to control (RVB = 9.1 %); assay type: functional
MCF7 [16] = test: Antiproliferative activity human MCF7 cells; assay type: functional, cell-based
MDA-MB-231 [17] = test: Antiproliferative activity against human MDA-MB-231 cells measured after 48 hrs by MTT assay; assay type: functional, cell-based; conditions: MDA-MB-231, 48 h
MDA-MB-231 [18] = test: Induction of cell cycle arrest in human MDA-MB-231 cells assessed as accumulation of cells at G0/G1 phase measured at 1 uM incubated for 24 hrs by flow cytometric analysis relative to control; assay type: functional
L02 = test: Cytotoxicity against human HL7702 cells expressing EGFR assessed as reduction in cell viability incubated for 24 hrs by MTT assay; assay type: functional, cell-based; conditions: L02, 24 h
HeLa [19] = test: Cytotoxicity against human HeLa cells expressing EGFR assessed as reduction in cell viability incubated for 24 hrs by MTT assay; assay type: functional, cell-based
HepG2 [20] = test: Cytotoxicity against human HepG2 cells expressing EGFR assessed as reduction in cell viability incubated for 24 hrs by MTT assay; assay type: functional, cell-based; conditions: HepG2, 24 h
HUVEC = test: Cytotoxicity against HUVEC expressing EGFR assessed as reduction in cell viability incubated for 24 hrs by MTT assay; assay type: functional, cell-based; conditions: Homo sapiens
HCT-116 = test: Anticancer activity against human HCT-116 cells measured after 48 hrs by MTT assay; assay type: functional, cell-based; conditions: HCT-116, 48 h
HeLa [21] = test: Antiproliferative activity against human HeLa cells measured after 48 hrs by MTT assay; assay type: functional, cell-based
MCF7 [22] = test: Antiproliferative activity against human MCF7 cells measured after 48 hrs by MTT assay; assay type: functional, cell-based; conditions: MCF7, 48 h
MIA PaCa-2 = test: Antiproliferative activity against human MIAPaCa-2 cells measured after 24 to 48 hrs by SRB staining based assay; assay type: functional, cell-based
HepG2 [23] = test: Antiproliferative activity against human HepG2 cells measured after 48 hrs by MTT assay; assay type: functional, cell-based; conditions: HepG2, 48 h
A549 [24] = test: Induction of cell cycle arrest in human A549 cells assessed as accumulation of cells at G2/M phase at 2 uM by flow cytometric analysis relative to control; assay type: functional
A549 [25] = test: Induction of cell cycle arrest in human A549 cells assessed as accumulation of cells at G2/M phase at 1 uM by flow cytometric analysis relative to control; assay type: functional
A549 [26] = test: Induction of apoptosis in human A549 cells at 2 uM measured after 48 hrs by Annexin V-FITC analysis; assay type: functional
A549 [27] = test: Induction of apoptosis in human A549 cells at 1 uM measured after 48 hrs by Annexin V-FITC analysis; assay type: functional
HL-60(TB) = test: Anticancer activity against human HL-60(TB) cells incubated for 48 hrs by SRB staining assay relative to control; assay type: functional
SF-268 = test: Anticancer activity against human SF-268 cells incubated for 48 hrs by SRB staining assay; assay type: functional
SR [28] = test: Anticancer activity against human SR cells incubated for 48 hrs by SRB staining assay; assay type: functional
DU-145 = test: Anticancer activity against human DU-145 cells incubated for 48 hrs by SRB staining assay relative to control; assay type: functional
NCI-H460 = test: Anticancer activity against human NCI-H460 cells incubated for 48 hrs by SRB staining assay; assay type: functional
MDA-MB-231 [29] = test: Anticancer activity against human MDA-MB-231 cells incubated for 48 hrs by SRB staining assay; assay type: functional
CCRF-CEM = test: Anticancer activity against human CCRF-CEM cells incubated for 48 hrs by SRB staining assay; assay type: functional
OVCAR-3 = test: Anticancer activity against human OVCAR-3 cells incubated for 48 hrs by SRB staining assay; assay type: functional
CAKI-1 = test: Anticancer activity against human CAKI-1 cells incubated for 48 hrs by SRB staining assay; assay type: functional
SR [30] = test: Anticancer activity against human SR cells incubated for 48 hrs by SRB staining assay relative to control; assay type: functional
NCI-H322M = test: Anticancer activity against human NCI-H322M cells incubated for 48 hrs by SRB staining assay; assay type: functional
UO-31 = test: Anticancer activity against human UO-31 cells incubated for 48 hrs by SRB staining assay; assay type: functional
HCT-15 = test: Anticancer activity against human HCT-15 cells incubated for 48 hrs by SRB staining assay; assay type: functional

Sequence of Serine/threonine-protein kinase B-raf (P15056 2-766 V600E limits assumed): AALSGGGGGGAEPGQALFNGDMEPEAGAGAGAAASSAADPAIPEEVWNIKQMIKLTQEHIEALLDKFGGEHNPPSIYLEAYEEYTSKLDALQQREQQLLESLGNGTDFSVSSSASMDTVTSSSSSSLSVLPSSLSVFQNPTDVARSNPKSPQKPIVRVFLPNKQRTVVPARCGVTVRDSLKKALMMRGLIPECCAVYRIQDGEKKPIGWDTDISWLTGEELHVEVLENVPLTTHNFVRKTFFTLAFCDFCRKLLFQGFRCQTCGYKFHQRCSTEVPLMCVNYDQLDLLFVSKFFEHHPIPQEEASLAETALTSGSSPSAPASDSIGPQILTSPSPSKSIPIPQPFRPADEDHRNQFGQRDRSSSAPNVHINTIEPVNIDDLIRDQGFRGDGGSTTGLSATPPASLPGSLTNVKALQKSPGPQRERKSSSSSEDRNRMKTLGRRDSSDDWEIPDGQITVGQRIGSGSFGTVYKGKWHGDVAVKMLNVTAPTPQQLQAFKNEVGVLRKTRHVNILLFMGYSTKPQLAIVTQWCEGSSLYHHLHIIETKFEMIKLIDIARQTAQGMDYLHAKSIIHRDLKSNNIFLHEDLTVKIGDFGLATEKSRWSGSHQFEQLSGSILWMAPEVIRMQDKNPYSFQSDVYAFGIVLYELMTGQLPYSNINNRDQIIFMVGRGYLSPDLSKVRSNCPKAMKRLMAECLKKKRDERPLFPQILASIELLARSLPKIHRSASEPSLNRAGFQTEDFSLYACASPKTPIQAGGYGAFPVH

SMILES: O=[N+]([O-])c1cccc(-c2nc3sccn3c2-c2ccnc(NCCCNS(=O)(=O)c3ccc(F)cc3)n2)c1
- inhibition (INH) (Breast carcinoma cell): >80%
- IC50 [1]: 0.035 µM
- inhibition (INH) [2]: >80%
- inhibition (INH) [3]: >80%
- IC50 [4]: 76 µM
- IC50 (A-375 [5]): 7.96 µM
- inhibition (INH) (Leukemic tumor cell line): >90%
- inhibition (INH) (Ovarian cancer cell line): >80%
- inhibition (INH) (Renal cancer cell line): >70%
- inhibition (INH) (Melanoma tumor cell line): 100%
- inhibition (INH) (Prostatic carcinoma cell): >90%
- inhibition (INH) (CNS carcinoma cell): 70%

SMILES: O=C(NCCNc1nccc(-c2c(-c3cccc(O)c3)nc3sccn23)n1)c1ccccc1
- IC50 (A-375 [6]): 0.18 µM
- IC50 (UACC-62 [7]): 0.18 µM
- IC50 (MDA-MB-435): 0.18 µM
- IC50 (SK-MEL-28): 0.18 µM
- IC50 [8]: 0.19 µM
- Activity (UACC-62 [9]): 53.33%

SMILES: COC(=O)Nc1nc2cc(C(=O)c3cccs3)ccc2[nH]1 [NOCODAZOLE]
- IC50 [10]: 1.99 µM
- inhibition (A549 [11]): 64.7%
- IC50 (MDA-MB-231 [12]): 2.37 µM
- IC50 (A549 [13]): 1.81 µM
- IC50 (A549 [14]): 1.14 µM
- Activity (A549 [15]): 62.9%
- IC50 (MCF7 [16]): 2.37 µM
- IC50 (MDA-MB-231 [17]): 1.9 µM

SMILES: COc1cc(C(=O)N/N=C/c2c(-c3ccc(F)cc3)nc3sccn23)cc(OC)c1OC
- Activity (MDA-MB-231 [18]): 75.8%

SMILES: O=C(Cc1csc2nc3ccccc3n12)Nc1ccccc1O
- IC50 (L02): > 100 µM
- IC50 (HeLa [19]): 0.42 µM
- IC50 (HepG2 [20]): > 100 µM
- IC50 (HUVEC): > 100 µM

SMILES: C/C(=N\N=C1\S/C(=N\Nc2ccccc2)C(=O)N1N)c1sc2nc(-c3ccc(C)cc3)cn2c1C
- IC50 (HCT-116): 1.1 µM

SMILES: O=C1Nc2ccccc2/C1=C\c1c(-c2ccc(Br)cc2)nc2scc(-c3cc4ccccc4oc3=O)n12
- IC50 (HeLa [21]): 6.77 µM
- IC50 (MCF7 [22]): 10.8 µM

SMILES: COc1cccc2c1C(=O)c1c(O)c3c(c(O)c1C2=O)C[C@@](O)(C(=O)CO)C[C@@H]3O[C@H]1C[C@H](N)[C@H](O)[C@H](C)O1 [DOXORUBICIN]
- IC50 (MDA-MB-231 [17]): 1.8 µM

SMILES: COc1ccc2c(c1OCc1csc3nc(-c4cc(C)c(Br)s4)cn13)C(=O)OC2C1c2c(cc3c(c2OC)OCO3)CCN1C (centres undefined)
- IC50 (MIA PaCa-2): 3.6 µM

SMILES: O=C1NC(=S)NC(=O)C1=Cc1c(-c2ccc(Cl)cc2)nc2scc(-c3cc4ccccc4oc3=O)n12
- IC50 (HeLa [21]): 5.18 µM
- IC50 (MCF7 [22]): 17 µM
- IC50 (HepG2 [23]): 13.9 µM

SMILES: COc1ccc(-c2nc3sccn3c2-c2nc3ccc(C(F)(F)F)cc3[nH]2)cc1
- IC50 [10]: 1.68 µM
- Activity (A549 [24]): 56.3%
- inhibition (A549 [11]): 68.1%
- IC50 (A549 [13]): 1.08 µM
- Activity (A549 [25]): 15.1%
- Activity (A549 [26]): 43.62%
- Activity (A549 [27]): 14.94%

SMILES: O=C(Cc1csc2nc(-c3ccc(Cl)cc3)cn12)N/N=C/c1ccccc1O
- Activity (HL-60(TB)): 103.5%
- GI50 (SF-268): 1.26 µM
- GI50 (SR [28]): 0.603 µM
- Activity (DU-145): 108.65%
- GI50 (NCI-H460): 1.38 µM
- GI50 (MDA-MB-231 [29]): 1.58 µM
- GI50 (CCRF-CEM): 0.741 µM
- GI50 (OVCAR-3): 0.363 µM
- GI50 (CAKI-1): 0.776 µM
- Activity (SR [30]): 11.51%
- GI50 (NCI-H322M): 1.55 µM
- GI50 (UO-31): 0.501 µM
- GI50 (HCT-15): 0.468 µM

Source: ChEMBL document CHEMBL5096145, “Evaluation of imidazo[2,1-b]thiazole-based anticancer agents in one decade (2011-2020): Current status and future prospects” (Bioorg Med Chem, 2021)
